Reference: patent US6306869A, “N-oxides” (Byk Gulden Lomberg Chemische Febrik GmbH, priority 1998, dated 2001)

Tests used:
[1] = target: T1, PDE3 (cGMP-inhibited) (Homo sapiens, UniProt Q14432); assay: Inhibition of PDE isoenzymes: PDE3; type: biochemical; conditions: homogenates of human blood platelets, cAMP as substrate; read-out: PDE3 [-loglC50,mol/l] (converted)
T1 construct: were investigated in homogenates of human blood platelets; from tissue; host or cells: homogenates of human blood platelets
T1 sequence (Q14432 whole entry): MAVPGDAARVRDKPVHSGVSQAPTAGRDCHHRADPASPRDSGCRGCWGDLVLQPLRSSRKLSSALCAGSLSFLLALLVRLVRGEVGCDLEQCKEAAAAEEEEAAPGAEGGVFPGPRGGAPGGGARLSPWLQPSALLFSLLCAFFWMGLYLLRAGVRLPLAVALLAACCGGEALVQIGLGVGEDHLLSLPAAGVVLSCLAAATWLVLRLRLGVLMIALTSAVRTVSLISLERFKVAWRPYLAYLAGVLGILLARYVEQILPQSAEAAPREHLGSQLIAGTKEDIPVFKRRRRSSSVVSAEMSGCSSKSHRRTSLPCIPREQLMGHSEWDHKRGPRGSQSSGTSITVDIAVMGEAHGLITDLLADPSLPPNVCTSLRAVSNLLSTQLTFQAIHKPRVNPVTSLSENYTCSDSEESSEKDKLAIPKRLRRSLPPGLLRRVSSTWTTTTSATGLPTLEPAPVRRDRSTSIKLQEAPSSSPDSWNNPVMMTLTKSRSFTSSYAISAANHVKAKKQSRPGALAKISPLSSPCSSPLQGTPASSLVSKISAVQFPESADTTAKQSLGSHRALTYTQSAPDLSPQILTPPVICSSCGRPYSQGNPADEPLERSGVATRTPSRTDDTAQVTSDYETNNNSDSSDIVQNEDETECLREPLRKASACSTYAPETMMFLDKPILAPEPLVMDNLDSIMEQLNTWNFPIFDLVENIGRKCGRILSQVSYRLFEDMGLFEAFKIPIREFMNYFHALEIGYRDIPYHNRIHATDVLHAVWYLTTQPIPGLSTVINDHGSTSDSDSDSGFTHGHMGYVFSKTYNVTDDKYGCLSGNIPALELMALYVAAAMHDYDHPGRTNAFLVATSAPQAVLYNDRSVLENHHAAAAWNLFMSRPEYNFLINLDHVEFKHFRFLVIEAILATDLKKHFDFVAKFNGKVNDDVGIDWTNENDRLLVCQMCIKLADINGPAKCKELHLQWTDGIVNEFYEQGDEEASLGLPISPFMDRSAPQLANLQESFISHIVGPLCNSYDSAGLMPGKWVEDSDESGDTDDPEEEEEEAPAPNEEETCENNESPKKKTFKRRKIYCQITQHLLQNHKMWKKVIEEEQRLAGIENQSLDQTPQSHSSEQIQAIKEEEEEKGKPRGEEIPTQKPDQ
Experimental: The PDE activity was determined according to Thompson et al. (1) with some modifications (2). The test samples contained 40 mM tris HCl (pH 7.4), 5 mM MgCl2, 0.5 μM cAMP or cGMP, [^3 H] cAMP or [3H]CGMP (about 50,000 cpm/sample), the PDE isoenzyme-specific additions described in greater detail below, the indicated concentrations of inhibitor and an aliquot of the enzyme solution in a total sample volume of 200 μl. […] After preincubation at 37° C. for 5 minutes, the reaction was started by addition of the substrate (cAMP or cGMP). The samples were incubated at 37° C. for a further 15 min. The reaction was terminated by addition of 50 μl of 0.2 N HCl. After cooling on ice for 10 minutes and addition of 25 μg of 5'-nucleotidase (snake venom from Crotalus atrox), the mixture was again incubated at 37° C. for 10 min and the samples were then applied to QAE Sephadex A-25 columns. The columns were eluted with 2 ml of 30 mM ammonium formate (pH 6.0). The radioactivity of the eluate was measured and corrected by the corresponding blank values. The proportion of hydrolysed nucleotide in no case exceeded 20% of the original substrate concentration.
PDE3 (cGMP-inhibited) and PDE5 (cGMP-specific) were investigated in homogenates of human blood platelets [Schudt et al. (4)] using cAMP or cGMP as a substrate.
The IC50 values were determined from the concentration-inhibition curves by nonlinear regression using the GraphPad InPlot™ program (GraphPad Software Inc., […], USA).

[2] = target: PDE4 (cAMP-specific); assay: Inhibition of PDE isoenzymes: PDE4; type: biochemical; conditions: cytosol of human polymorphonuclear leukocytes (PMNL), cAMP as substrate, motapizone 1 μM present

| Compound | IC50 [1] | PDE4 [-loglC50,mol/l] [2] |
| --- | --- | --- |
| CCCCN(CCCC)C(=O)c1ccc(C2=N[C@@H]3CC[N+](C)([O-])C[C@@H]3c3cc(OCC)c(OC)cc32)cc1 (relative stereo) [Compound 2, cis-9-ethoxy-2-methyl-8-methoxy-6-(4-dibutylaminocarbonylphenyl)-1 ,2,3,4,4a,10b-hexahydrobenzo[c][1,6]naphthyridine N-2-oxide] | 1070 nM | 7.98 |
| CCCCN(CCCC)C(=O)c1ccc(C2=N[C@@H]3CC[N+](C)([O-])C[C@@H]3c3cc(OCCC)c(OC)cc32)cc1 (relative stereo) [Compound 3, cis-8-methoxy-2-methyl-9-propoxy-6-(4-dibutylaminocarbonylphenyl)-1 ,2,3,4,4a,10b-hexahydrobenzo[c][1,6]naphthyridine N-2-oxide] | 2090 nM | 7.53 |
| CCOc1cc2c(cc1OC)C(c1ccc(C(=O)N(C(C)C)C(C)C)cc1)=N[C@@H]1CC[N+](C)([O-])C[C@H]21 (single isomer, unassigned) [Compound 1, cis-9-ethoxy-8-methoxy-2-methyl-6-(4-diisopropylaminocarbonylphenyl)-1,2,3,4,4a,10b-hexahydrobenzo[c][1,6]naphthyridine N-2-oxide] | 776 nM | 7.20 |
